From PMC9606102, “[^89Zr]Zr-PSMA-617 PET/CT in biochemical recurrence of prostate cancer: first clinical experience from a pilot study including biodistribution and dose estimates” (European Journal of Nuclear Medicine and Molecular Imaging, 2022)
“Also recorded” adds a separate entry of the source.

Assays:
[1] = [^89Zr]Zr-PSMA-617 PET/CT biodistribution in normal organs (SUV, tissue-to-background ratio); format: in vivo, human (patients); settings: for SUVmax: mean ± SD
Procedure: Each patient underwent PET/CT imaging scans at 4 time points: 1 h, 24 h, 48 h, and 72 h post intravenous injection (p.i.) of 111 ± 11 MBq (mean ± standard deviation, range 97–129 MBq) [^89Zr]Zr-PSMA-617. All PET/CT imaging was performed on a Biograph mCT 40 scanner (Siemens Medical Solutions, Knoxville, TN, USA) comprising whole-body PET/CT scans extending from vertex to mid-femur in 3D mode. PET acquisition time duration was 4 min per bed position on the initial day of injection and extended up to 10 min on the last day. CT data were acquired in low-dose technique using an X-ray tube voltage of […] and a modulation of the tube current (CARE Dose4D, Siemens Erlangen; maximal tube current 30 mA) followed by reconstruction with a soft tissue reconstruction kernel (B31f) to a slice thickness of 5 mm (increment 2–4 mm). PET emission data was corrected for decay, randoms, and scatter. PET image reconstruction was performed applying an iterative 3-dimensional ordered-subset expectation maximization (OSEM) algorithm (3 iterations; 24 subsets) with gaussian filtering to a transaxial resolution of 5 mm at full width half maximum (FWHM). The matrix and the pixel size were 200 × 200 and 3.0 mm, respectively. Attenuation correction was performed using the low-dose CT data.
The biodistribution of [^89Zr]Zr-PSMA-617 was quantified by analyzing the standard uptake values (SUV) SUVmax, SUVpeak and SUVmean at 1 h, 24 h, 48 h, and 72 h p.i.. Considering normal-organs, elliptical volumes of interest (VOI) were manually drawn enclosing regions of relatively homogenous uptake. Activity estimation was performed within the VOI applying a 40% or, in case of faintly accumulating organs, a 20% threshold using the SyngoVia software (Enterprise VB 60, Siemens, Erlangen, Germany). The following organs were included in this evaluation: the brain, salivary, and lacrimal glands, nasal mucosa, lung, liver, spleen, small and large intestine, and the kidneys. With regard to the large intestine, SUV was determined at the descending colon. Blood pool and background were evaluated in the descending aorta and the gluteal muscle, respectively. Tissue-to-background ratios (TiBR) were calculated by dividing the SUVmax of the organs by the SUVmean of the background (gluteal muscle).

[2] = Adverse event recording after [^89Zr]Zr-PSMA-617 PET/CT; format: in vivo, human (patients); settings: 7 patients, 111 ± 11 MBq i.v., during examination and 4 weeks follow-up
Procedure: Any adverse event was recorded during and after examination. Vital parameters as heart rate, blood pressure, body temperature, and oxygen saturation were closely monitored. Within a time interval of 4 weeks after [^89Zr]Zr-PSMA-617 PET/CT, patients were additionally interviewed about potential side effects.

## O=C([O-])CN1CCN(CC(=O)[O-])CCN(CC(=O)NCC2CCC(C(=O)NC(Cc3ccc4ccccc4c3)C(=O)NCCCCC(NC(=O)NC(CCC(=O)O)C(=O)O)C(=O)O)CC2)CCN(CC(=O)[O-])CC1.[89Zr+4] (centres unmarked) [[^89Zr]Zr-PSMA-617]
[1]; colon, 1 h p.i.
  SUVmax: 3.50 ± 2.21
[1]; colon, 72 h p.i.
  SUVmax: 13.57 ± 5.00
[1]; kidneys, 1 h p.i.
  SUVmax: 21.15 ± 12.31
[1]; kidneys, 72 h p.i.
  SUVmax: 7.43 ± 1.56
[1]; salivary glands, kidneys, and colon at 72 h p.i., SUVmax organ / SUVmean gluteal muscle
  Tissue-to-background ratio (TiBR): ≥ 50
[1]; submandibular gland, 24 h p.i.
  SUVmax: 17.30 ± 4.69
[1]; submandibular gland, 72 h p.i.
  SUVmax: 6.29 ± 1.61
[2]
  Side effects / adverse events: not associated with any side effects; also recorded: no other side effects were observed
